The text below walks through data of patent US20230279001A1, “IMIDAZO[1,2-A]PYRIDINE COMPOUNDS FOR THE TREATMENT OF AUTOIMMUNE DISEASE” (Hoffmann-La Roche Inc., priority 2020, published 2023).

One assay addresses human TLR8 (Homo sapiens (Human), UniProt Q9NR97). The assay is described as follows: HEK293-Blue-hTLR-8 cells assay. It is filed as cell-based. Particulars: HEK293-Blue-hTLR8 cells, R848 stimulation, 20 hrs, SEAP reporter; read-out: HEK/hTLR8 IC50. The source says:
A stable HEK293-Blue-hTLR-8 cell line was purchased from InvivoGen (Cat. #: hkb-htlr8, San Diego, Calif., USA). These cells were originally designed for studying the stimulation of human TLR8 by monitoring the activation of NF-κB. A SEAP (secreted embryonic alkaline phosphatase) reporter gene was placed under the control of the IFN-β minimal promoter fused to five NF-κB and AP-1-binding sites. The SEAP was induced by activating NF-κB and AP-1 via stimulating HEK-Blue hTLR8 cells with TLR8 ligands. Therefore the reporter expression was declined by TLR8 antagonist under the stimulation of a ligand, such as R848, for incubation of 20 hrs. The cell culture supernatant SEAP reporter activity was determined using QUANTI-Blue™ kit (Cat. #: rep-gb1, Invivogen, San Diego, Ca, USA) at a wavelength of 640 nm, a detection medium that turns purple or blue in the presence of alkaline phosphatase.
HEK293-Blue-hTLR8 cells were incubated at a density of 250,000˜450,000 cells/mL in a volume of 170 μL in a 96-well plate in Dulbecco's Modified Eagle's medium (DMEM) containing 4.5 g/L glucose, 50 U/mL penicillin, […], […], 2 mM L-glutamine, 10% (v/v) heat-inactivated fetal bovine serum with addition of 20 μL test compound in a serial dilution in the presence of final DMSO at 1% and 10 μL of 60 uM R848 in above DMEM, perform incubation under 37° C. in a CO2 incubator for 20 hrs. Then 20 μL of the supernatant from each well was incubated with 180 μL Quanti-blue substrate solution at 37° C. for 2 hrs and the absorbance was read at 620655 nm using a spectrophotometer. The signaling pathway that TLR8 activation leads to downstream NF-κB activation has been widely accepted, and therefore similar reporter assay was modified for evaluating TLR8 antagonist.

Assay [1] deals with T1, TLR9 (Homo sapiens (Human), UniProt Q9NR96). The assay can be described thus: HEK293-Blue-hTLR-9 cells assay. The conditions noted are these: HEK293-Blue-hTLR9 cells, ODN2006 stimulation, 20 hrs, SEAP reporter; read-out: HEK/hTLR9 IC50. It is filed as cell-based. The source says: A stable HEK293-Blue-hTLR-9 cell line was purchased from InvivoGen (Cat. #: hkb-htlr9, San Diego, Calif., USA). These cells were originally designed for studying the stimulation of human TLR9 by monitoring the activation of NF-κB. A SEAP (secreted embryonic alkaline phosphatase) reporter gene was placed under the control of the IFN-β minimal promoter fused to five NF-κB and AP-1-binding sites. The SEAP was induced by activating NF-κB and AP-1 via stimulating HEK-Blue hTLR9 cells with TLR9 ligands. Therefore the reporter expression was declined by TLR9 antagonist under the stimulation of a ligand, such as ODN2006 (Cat. #: tlr1-2006-1, Invivogen, San Diego, Calif., USA), for incubation of 20 hrs. The cell culture supernatant SEAP reporter activity was determined using QUANTI-Blue™ kit (Cat. #: rep-qb1, Invivogen, San Diego, Calif., USA) at a wavelength of 640 nm, a detection medium that turns purple or blue in the presence of alkaline phosphatase.
HEK293-Blue-hTLR9 cells were incubated at a density of 250,000˜450,000 cells/mL in a volume of 170 μL in a 96-well plate in Dulbecco's Modified Eagle's medium (DMEM) containing 4.5 g/L glucose, 50 U/mL penicillin, […], 2 mM L-glutamine, 10% (v/v) heat-inactivated fetal bovine serum with addition of 20 μL test compound in a serial dilution in the presence of final DMSO at 1% and 10 μL, of 20 uM ODN2006 in above DMEM, perform incubation under 37° C. in a CO2 incubator for 20 hrs. Then 20 μL of the supernatant from each well was incubated with 180 μL, Quanti-blue substrate solution at 37° C. for 2 h and the absorbance was read at 620655 nm using a spectrophotometer. The signaling pathway that TLR9 activation leads to downstream NF-κB activation has been widely accepted, and therefore similar reporter assay was modified for evaluating TLR9 antagonist.

Assay [2] concerns the target T1, TLR9. The assay can be described thus: Human PBMC cell-based assay, TLR9. Particulars: CpG ODN 2216 at 1 μM, overnight, cytokine readout, read-out: hPBMC/TLR9 IC50. The source says:
Unlike the HEK reporter cell lines, human peripheral blood mononuclear cell (PBMC) represents primary human immune cells in blood mainly consisting of lymphocytes, monocytes, and dendritic cells. These cells express TLR7, TLR8, or TLR9, and therefore are natural responders to respective ligand stimulation. Upon activation of these TLRs, PBMCs secrete similar cytokines and chemokines in vitro and in vivo, and therefore the in vitro potency of a TLR7/8/9 antagonist in human PBMC is readily translatable to its pharmacodynamics response in vivo.
Human peripheral blood mononuclear cells (PBMC) were isolated from freshly-drawn lithium-heparinized (Lithium Heparin Plus blood Collection tube, BD Vacutainer®) healthy donor whole blood by density gradient (Ficoll-Paque™ PLUS, GE Healthcare life Sciences). Briefly, […] was diluted with 25 mL PBS (without Ca^2+, Mg^2+) in a 50 mL conical tube with porous barrier (Leucosep tube, Greiner bio-one), where 15.5 mL Ficoll-Paque was under laid after spinning. Tubes were centrifuged for 20 minutes at 800×g (1946 rpm) with the brake in the off position, and PBMC were collected from the buffy coat. Cells were then washed twice in PBS, and red blood cells were lysed by suspension in 2 mL (Red Blood Cell Lysis Buffer, Alfa Aesar) for 5-10 minutes at room temperature. After a final wash in PBS, PBMC were resuspended at a final concentration of 2×10^6 cells/mL in RPMI-1640 media with GlutaMAX™ (Gibco) supplemented with 10% Fetal Bovine Serum (Sigma) and plated at 150 μL/well (3×10^5 cells/well) in tissue culture treated round bottom 96-well plates (Corning Incorporated). Antagonist compounds (compounds of this invention) solubilized and serial diluted in 100% DMSO were added in duplicate to cells to yield a final concentration of 1% DMSO (v/v). PBMC were incubated with antagonist compounds for 30 minutes at 37° C., 5% CO2 before adding various TLR agonist reagents in 48 μL complete media per well as follows (final concentrations indicated): CpG ODN 2216 (InvivoGen) at 1 μM for TLR9, ORN 06/LyoVec (InvivoGen) at 1 μg/mL for TLR8 and R848 (InvivoGen) at 1 μg/mL for TLR7 and TLR8. PBMC were incubated overnight at 37° C. with 5% CO2. Cell culture supernatants were collected, and levels of various human cytokines were assessed by Luminex assay (ProcartaPlex™ Multiplex Immunoassay, Invitrogen) or ELISA procedure according to the manufacturer's recommended protocol (eBioscience, ThermoFisher Scientific). Viability of the cells was also checked with Cell Viability Assay (CellTiter Glo®Luminescent Cell Viability Assay, Promega).

Chain of human TLR8 (Q9NR97 27-1041): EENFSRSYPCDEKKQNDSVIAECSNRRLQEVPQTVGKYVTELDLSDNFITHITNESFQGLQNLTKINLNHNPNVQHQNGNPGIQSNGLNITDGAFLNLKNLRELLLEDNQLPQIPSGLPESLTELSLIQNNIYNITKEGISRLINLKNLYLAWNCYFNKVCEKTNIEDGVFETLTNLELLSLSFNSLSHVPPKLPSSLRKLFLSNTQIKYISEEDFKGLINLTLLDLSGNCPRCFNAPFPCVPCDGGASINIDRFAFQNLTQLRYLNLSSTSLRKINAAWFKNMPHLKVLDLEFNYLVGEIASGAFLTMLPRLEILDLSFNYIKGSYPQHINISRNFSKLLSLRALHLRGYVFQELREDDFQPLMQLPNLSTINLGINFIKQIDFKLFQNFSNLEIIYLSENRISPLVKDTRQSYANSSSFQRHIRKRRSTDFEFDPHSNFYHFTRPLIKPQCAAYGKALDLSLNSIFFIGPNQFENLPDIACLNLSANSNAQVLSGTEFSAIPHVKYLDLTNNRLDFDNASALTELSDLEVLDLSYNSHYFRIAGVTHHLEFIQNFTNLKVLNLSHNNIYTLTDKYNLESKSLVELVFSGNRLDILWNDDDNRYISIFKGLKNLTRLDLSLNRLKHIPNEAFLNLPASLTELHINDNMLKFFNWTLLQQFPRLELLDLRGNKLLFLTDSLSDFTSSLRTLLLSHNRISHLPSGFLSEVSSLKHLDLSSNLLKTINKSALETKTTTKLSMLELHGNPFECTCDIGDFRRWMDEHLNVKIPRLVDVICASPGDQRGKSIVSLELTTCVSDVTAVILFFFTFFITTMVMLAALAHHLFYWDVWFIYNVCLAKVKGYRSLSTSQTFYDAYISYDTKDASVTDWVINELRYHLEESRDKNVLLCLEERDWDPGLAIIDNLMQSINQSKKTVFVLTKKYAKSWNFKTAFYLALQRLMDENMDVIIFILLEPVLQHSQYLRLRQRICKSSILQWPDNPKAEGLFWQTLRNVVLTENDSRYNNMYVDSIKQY
T1 sequence (Q9NR96 26-1032): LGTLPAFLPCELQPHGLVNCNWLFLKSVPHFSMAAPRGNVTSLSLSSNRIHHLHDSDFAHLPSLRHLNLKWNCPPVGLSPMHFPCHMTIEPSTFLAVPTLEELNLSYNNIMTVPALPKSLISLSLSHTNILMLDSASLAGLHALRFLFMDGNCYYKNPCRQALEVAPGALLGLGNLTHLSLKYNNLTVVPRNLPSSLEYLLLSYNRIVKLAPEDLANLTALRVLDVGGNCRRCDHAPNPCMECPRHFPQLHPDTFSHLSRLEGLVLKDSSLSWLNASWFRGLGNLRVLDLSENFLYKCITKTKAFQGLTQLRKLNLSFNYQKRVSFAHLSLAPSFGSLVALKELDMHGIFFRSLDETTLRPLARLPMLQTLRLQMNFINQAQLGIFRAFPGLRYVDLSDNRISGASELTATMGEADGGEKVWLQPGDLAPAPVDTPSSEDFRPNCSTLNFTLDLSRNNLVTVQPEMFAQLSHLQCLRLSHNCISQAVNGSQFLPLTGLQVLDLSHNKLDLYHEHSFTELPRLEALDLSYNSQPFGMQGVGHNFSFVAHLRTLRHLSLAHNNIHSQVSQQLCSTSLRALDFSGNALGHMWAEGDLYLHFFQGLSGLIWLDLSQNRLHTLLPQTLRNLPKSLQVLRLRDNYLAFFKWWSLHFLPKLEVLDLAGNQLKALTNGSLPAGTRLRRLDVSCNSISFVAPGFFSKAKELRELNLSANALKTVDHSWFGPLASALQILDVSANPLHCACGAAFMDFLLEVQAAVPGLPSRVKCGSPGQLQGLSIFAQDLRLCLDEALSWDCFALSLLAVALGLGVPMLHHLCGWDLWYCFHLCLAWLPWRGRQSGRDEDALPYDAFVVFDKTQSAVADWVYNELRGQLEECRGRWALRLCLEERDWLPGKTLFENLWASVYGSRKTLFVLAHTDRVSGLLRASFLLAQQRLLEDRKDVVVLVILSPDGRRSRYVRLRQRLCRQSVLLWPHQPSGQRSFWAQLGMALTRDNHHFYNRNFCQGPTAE

`Cc1cn2cc(-c3ccc(N4CCC(N)CC4)nc3C(C)C)cc(C)c2n1` [Example 4, 1-[5-(2,8-dimethylimidazo[1,2-a]pyridin-6-yl)-6-isopropyl-2-pyridyl]piperidin-4-amine]: the IC50 was 2.9 nM on human TLR8 and 154 nM on TLR9 [1].

In the case of `COc1nc(N2CCC(N3CCNCC3)CC2)ccc1-c1cc(C)c2nccn2c1` [Example 25, 6-[2-methoxy-6-(4-piperazin-1-yl-1-piperidyl)-3-pyridyl]-8-methyl-imidazo[1,2-a]pyridine], the figures for the IC50 on human TLR8, at TLR9 [2] and on TLR9 [1] were 11.2 nM, 130 nM and 92 nM, respectively.

Take `Cc1cc(-c2cc(C)c3nccn3c2)cnc1N1CCC(N2CCN(C)CC2)CC1` [Example 9, 8-methyl-6-[5-methyl-6-[4-(4-methylpiperazin-1-yl)-1-piperidyl]-3-pyridyl]imidazo[1,2-a]pyridine]: the IC50 at human TLR8 was found to be 10.7 nM; at TLR9 [2], 500 nM; on TLR9 [1], 169 nM.

With `CCc1nc(N2CCC(N3C[C@@H](N)[C@H](OC)C3)CC2)ccc1-c1cc(C)c2nccn2c1` [Example 15, (3R,4R)-1-[1-[6-ethyl-5-(8-methylimidazo[1,2-a]pyridin-6-yl)-2-pyridyl]-4-piperidyl]-4-methoxy-pyrrolidin-3-amine], the IC50 was 0.3 nM at human TLR8, 470 nM at TLR9 [2] and 286 nM at TLR9 [1].

Turning to `CCc1cc(-c2cc(C)c3nccn3c2)cnc1N1CCC2(CCNCC2)CC1` [Example 22, 3-[3-ethyl-5-(8-methylimidazo[1,2-a]pyridin-6-yl)-2-pyridyl]-3,9-diazaspiro[5.5]undecane], the IC50 on human TLR8 turned out to be 40 nM; on TLR9 [1] it was 132 nM.

For the compound `Cc1c(-c2ccc(N3CCC(N4CCNCC4)CC3)nc2C(C)C)cn2ccnc2c1C` [Example 7, 6-[2-isopropyl-6-(4-piperazin-1-yl-1-piperidyl)-3-pyridyl]-7,8-dimethyl-imidazo[1,2-a]pyridine], the IC50 on human TLR8 turned out to be 8.6 nM; on TLR9 [1], 112 nM.

Turning to `Cc1cn2cc(-c3ccc(N4CCN5CCNCC5C4)nc3C(C)C)cc(C)c2n1` (centres unmarked) [Example 8, 2-[5-(2,8-dimethylimidazo[1,2-a]pyridin-6-yl)-6-isopropyl-2-pyridyl]-1,3,4,6,7,8,9,9a-octahydropyrazino[1,2-a]pyrazine], the IC50 is 2.3 nM on human TLR8 and 294 nM on TLR9 [1].

As for `Cc1cn2cc(-c3ccc(N4CCC(N5CCNCC5)CC4)nc3C(F)F)cc(C)c2n1` [Example 11, 6-[2-(difluoromethyl)-6-(4-piperazin-1-yl-1-piperidyl)-3-pyridyl]-2,8-dimethyl-imidazo[1,2-a]pyridine], the IC50 at human TLR8 is 16.8 nM; at TLR9 [1], 111 nM.

As for `Cc1cn2cc(-c3ccc(N4CCC(N5CC(C)(N)C5)CC4)nc3C(F)F)cc(C)c2n1` [Example 12, 1-[1-[6-(difluoromethyl)-5-(2,8-dimethylimidazo[1,2-a]pyridin-6-yl)-2-pyridyl]-4-piperidyl]-3-methyl-azetidin-3-amine], the IC50 came to 1.1 nM on human TLR8, 290 nM on TLR9 [2] and 145 nM at TLR9 [1].

Consider `Cc1cn2cc(-c3ccc(N4CCC(N5CCNCC5)CC4)nc3C(C)C)cc(C)c2n1` [Example 3, 6-[2-isopropyl-6-(4-piperazin-1-yl-1-piperidyl)-3-pyridyl]-2,8-dimethyl-imidazo[1,2-a]pyridine], for which the values for the IC50 on human TLR8 and at TLR9 [1] were 1.2 nM and 198 nM, respectively.

Consider `CCc1nc(N2CCC(C)(N)CC2)ccc1-c1cc(C)c2nc(C)cn2c1` [Example 20, 1-[5-(2,8-dimethylimidazo[1,2-a]pyridin-6-yl)-6-ethyl-2-pyridyl]-4-methyl-piperidin-4-amine], for which the IC50 on human TLR8 was 41.8 nM; on TLR9 [2], 500 nM; at TLR9 [1] it was 108 nM.

Consider `Cc1cc(-c2ccc(N3CCC(N4CCNCC4)CC3)nc2C(F)F)cn2ccnc12` [Example 10, 6-[2-(difluoromethyl)-6-(4-piperazin-1-yl-1-piperidyl)-3-pyridyl]-8-methyl-imidazo[1,2-a]pyridine], for which the IC50 at human TLR8 stood at 2.8 nM; at TLR9 [1], 217 nM.

As for `CCc1nc(N2CCC(N3CC4(CNCCO4)C3)CC2)ccc1-c1cc(C)c2nccn2c1` [Example 14, 2-[1-[6-ethyl-5-(8-methylimidazo[1,2-a]pyridin-6-yl)-2-pyridyl]-4-piperidyl]-5-oxa-2,8-diazaspiro[3.5]nonane], the IC50 at human TLR8 came to 0.4 nM; at TLR9 [2], 250 nM; on TLR9 [1], 216 nM.

In the case of `CCc1nc(N2CCC(N3CCNCC3)CC2)ccc1-c1cc(C)c2nc(C)cn2c1` [Example 21, 6-[2-ethyl-6-(4-piperazin-1-yl-1-piperidyl)-3-pyridyl]-2,8-dimethyl-imidazo[1,2-a]pyridine], the IC50 at human TLR8 amounted to 3.6 nM; at TLR9 [1] it was 140 nM.

Turning to `Cc1cc(-c2ccc(N3CCC(N4CCNCC4)CC3)nc2C(C)C)cn2ccnc12` [Example 2, 6-[2-isopropyl-6-(4-piperazin-1-yl-1-piperidyl)-3-pyridyl]-8-methyl-imidazo[1,2-a]pyridine], the values for the IC50 on human TLR8 and on TLR9 [1] were 1.3 nM and 151 nM, respectively.

Take `Cc1cn2cc(-c3ccc(N4CCNC[C@H]4CO)nc3C(C)C)cc(C)c2n1` [Example 5, [(2S)-1-[5-(2,8-dimethylimidazo[1,2-a]pyridin-6-yl)-6-isopropyl-2-pyridyl]piperazin-2-yl]methanol]: the IC50 at human TLR8 was found to be 30.4 nM; on TLR9 [1] it was 227 nM.
